Assay results from patent publication US8192962B2, “Processes for detecting toxic substances” (Daikin Industries, Ltd., priority 2001, dated 2012).

Tested on: Mitochondria-located protein genes
Experiment: DNA chip mRNA expression in yeast, mitochondria-located protein genes (Table 2)
Format: cell-based, Saccharomyces cerevisiae S288C
Details: cells incubated two hours with the chemical substance
Procedure, shortened: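 S. cerevisiae S288C grown at 25° C. in YPD to log phase, then exposed 2 h to a toxicant at a growth-inhibiting, non-lethal concentration; untreated cells as control. Poly(A) mRNA reverse-transcribed with Cy3-dUTP or Cy5-dUTP, hybridized >12 h at 65° C. to whole-genome yeast DNA chip; value = fluorescence ratio treated/untreated.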

Structure (SMILES): [Cl][Hg][Cl] [(3), HgCl2]
- The level of expressed mRNA in the presence of chemical substance/The level of expressed mRNA in the absence of chemical substance (yeast gene YJR121W): 3.3
- The level of expressed mRNA in the presence of chemical substance/The level of expressed mRNA in the absence of chemical substance (yeast gene YKL003C): 0.8
- The level of expressed mRNA in the presence of chemical substance/The level of expressed mRNA in the absence of chemical substance (yeast gene YKL016C): 0.7
- The level of expressed mRNA in the presence of chemical substance/The level of expressed mRNA in the absence of chemical substance (yeast gene YKL141W): 4.7
- The level of expressed mRNA in the presence of chemical substance/The level of expressed mRNA in the absence of chemical substance (yeast gene YKL142W): 3.1
- The level of expressed mRNA in the presence of chemical substance/The level of expressed mRNA in the absence of chemical substance (yeast gene YKL148C): 3.7
- The level of expressed mRNA in the presence of chemical substance/The level of expressed mRNA in the absence of chemical substance (yeast gene YKL170W): 0.5
- The level of expressed mRNA in the presence of chemical substance/The level of expressed mRNA in the absence of chemical substance (yeast gene YKL194C): 0.8
- The level of expressed mRNA in the presence of chemical substance/The level of expressed mRNA in the absence of chemical substance (yeast gene YKR066C): 5.5
- The level of expressed mRNA in the presence of chemical substance/The level of expressed mRNA in the absence of chemical substance (yeast gene YLL041C): 4.6
- The level of expressed mRNA in the presence of chemical substance/The level of expressed mRNA in the absence of chemical substance (yeast gene YLR038C): 0.6
- The level of expressed mRNA in the presence of chemical substance/The level of expressed mRNA in the absence of chemical substance (yeast gene YLR259C): 3.1
- The level of expressed mRNA in the presence of chemical substance/The level of expressed mRNA in the absence of chemical substance (yeast gene YLR295C): 1.1
- The level of expressed mRNA in the presence of chemical substance/The level of expressed mRNA in the absence of chemical substance (yeast gene YLR304C): 5.0
- The level of expressed mRNA in the presence of chemical substance/The level of expressed mRNA in the absence of chemical substance (yeast gene YLR348C): 1.2
- The level of expressed mRNA in the presence of chemical substance/The level of expressed mRNA in the absence of chemical substance (yeast gene YLR395C): 2.2
- The level of expressed mRNA in the presence of chemical substance/The level of expressed mRNA in the absence of chemical substance (yeast gene YML054C): 1.3
- The level of expressed mRNA in the presence of chemical substance/The level of expressed mRNA in the absence of chemical substance (yeast gene YML120C): 1.9
- The level of expressed mRNA in the presence of chemical substance/The level of expressed mRNA in the absence of chemical substance (yeast gene YML129C): 0.9
- The level of expressed mRNA in the presence of chemical substance/The level of expressed mRNA in the absence of chemical substance (yeast gene YMR023C): 0.5
- The level of expressed mRNA in the presence of chemical substance/The level of expressed mRNA in the absence of chemical substance (yeast gene YMR035W): 1.5
- The level of expressed mRNA in the presence of chemical substance/The level of expressed mRNA in the absence of chemical substance (yeast gene YMR083W): 2.6
- The level of expressed mRNA in the presence of chemical substance/The level of expressed mRNA in the absence of chemical substance (yeast gene YMR089C): 0.9
- The level of expressed mRNA in the presence of chemical substance/The level of expressed mRNA in the absence of chemical substance (yeast gene YMR152W): 1.8
- The level of expressed mRNA in the presence of chemical substance/The level of expressed mRNA in the absence of chemical substance (yeast gene YMR203W): 3.0
- The level of expressed mRNA in the presence of chemical substance/The level of expressed mRNA in the absence of chemical substance (yeast gene YMR267W): 0.7
- The level of expressed mRNA in the presence of chemical substance/The level of expressed mRNA in the absence of chemical substance (yeast gene YNL055C): 5.5
- The level of expressed mRNA in the presence of chemical substance/The level of expressed mRNA in the absence of chemical substance (yeast gene YNL071W): 1.7
- The level of expressed mRNA in the presence of chemical substance/The level of expressed mRNA in the absence of chemical substance (yeast gene YNL073W): 0.9
- The level of expressed mRNA in the presence of chemical substance/The level of expressed mRNA in the absence of chemical substance (yeast gene YNL104C): 3.0
- The level of expressed mRNA in the presence of chemical substance/The level of expressed mRNA in the absence of chemical substance (yeast gene YNL256W): 0.6
- The level of expressed mRNA in the presence of chemical substance/The level of expressed mRNA in the absence of chemical substance (yeast gene YOL096C): 1.2
- The level of expressed mRNA in the presence of chemical substance/The level of expressed mRNA in the absence of chemical substance (yeast gene YOR020C): 1.7
- The level of expressed mRNA in the presence of chemical substance/The level of expressed mRNA in the absence of chemical substance (yeast gene YOR037W): 0.6
- The level of expressed mRNA in the presence of chemical substance/The level of expressed mRNA in the absence of chemical substance (yeast gene YOR100C): 1.6
- The level of expressed mRNA in the presence of chemical substance/The level of expressed mRNA in the absence of chemical substance (yeast gene YOR130C): 1.4
- The level of expressed mRNA in the presence of chemical substance/The level of expressed mRNA in the absence of chemical substance (yeast gene YOR142W): 3.4
- The level of expressed mRNA in the presence of chemical substance/The level of expressed mRNA in the absence of chemical substance (yeast gene YOR150W): 1.0
- The level of expressed mRNA in the presence of chemical substance/The level of expressed mRNA in the absence of chemical substance (yeast gene YOR176W): 2.7
- The level of expressed mRNA in the presence of chemical substance/The level of expressed mRNA in the absence of chemical substance (yeast gene YOR187W): 1.9
- The level of expressed mRNA in the presence of chemical substance/The level of expressed mRNA in the absence of chemical substance (yeast gene YOR316C): 1.5
- The level of expressed mRNA in the presence of chemical substance/The level of expressed mRNA in the absence of chemical substance (yeast gene YPL040C): 0.8
- The level of expressed mRNA in the presence of chemical substance/The level of expressed mRNA in the absence of chemical substance (yeast gene YPL134C): 1.6
- The level of expressed mRNA in the presence of chemical substance/The level of expressed mRNA in the absence of chemical substance (yeast gene YPL135W): 2.5
- The level of expressed mRNA in the presence of chemical substance/The level of expressed mRNA in the absence of chemical substance (yeast gene YPL215W): 1.0
- The level of expressed mRNA in the presence of chemical substance/The level of expressed mRNA in the absence of chemical substance (yeast gene YPL262W): 3.8
- The level of expressed mRNA in the presence of chemical substance/The level of expressed mRNA in the absence of chemical substance (yeast gene YPR024W): 1.3
- The level of expressed mRNA in the presence of chemical substance/The level of expressed mRNA in the absence of chemical substance (yeast gene YPR037C): 1.6
- The level of expressed mRNA in the presence of chemical substance/The level of expressed mRNA in the absence of chemical substance (yeast gene YPR047W): 0.9
- The level of expressed mRNA in the presence of chemical substance/The level of expressed mRNA in the absence of chemical substance (yeast gene YPR134W): 0.8
